Some test systems named below: ACHN; BT-549; CAKI-1; CCRF-CEM; HCC 2998; HCT-116; IGROV-1; LOX IMVI; MCF7; MDA-MB-435; Malme-3M; NCI-H23; OVCAR-5; OVCAR-8; SK-MEL-28; SK-MEL-2; SN12C; SNB-75; UO-31; RXF 393.
What all share (test): DTP human tumour cell line panel, 48 h

Each structure is given as a SMILES string.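 Interpolation was linear, between the two tested concentrations surrounding the appropriate level; five concentrations were tested over 48 hours in 96-well plates. Here, GI50 denotes the concentration required for 50% inhibition of growth.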 Activity calls are given as the source filed them. No stated cut-off is given here; in the data, active = GI50 up to about 1.1 µM and inactive = higher.

By GI50 is commonly meant the concentration that inhibits growth by half. In the case of `COc1cc(OC)c2nccc(NCCCN(C)C)c2c1[N+](=O)[O-]`, the GI50 was > 100 µM (inactive) in the assay with ACHN; > 100 µM (inactive) in the assay on BT-549; > 100 µM (inactive) with CAKI-1; > 100 µM (inactive) with CCRF-CEM; > 100 µM (inactive) with HCC 2998; 62.4 µM (inactive) in the assay with HCT-116. For the same compound, the GI50 in the assay on IGROV-1 is 49.5 µM (inactive); in the assay with LOX IMVI, > 100 µM (inactive); in the assay with MCF7, > 100 µM (inactive); in the assay with MDA-MB-435, > 100 µM (inactive); in the assay with Malme-3M, 55.1 µM (inactive); with NCI-H23, > 100 µM (inactive). Besides, the GI50 in the assay on OVCAR-5 was > 100 µM (inactive); in the assay on OVCAR-8, > 100 µM (inactive); with SK-MEL-28, > 100 µM (inactive); in the assay with SK-MEL-2, > 100 µM (inactive); with SN12C it was > 100 µM (inactive); in the assay with SNB-75, 30.9 µM (inactive). For the same compound, the GI50 in the assay with UO-31 is > 100 µM (inactive).

For `CC1=CC2=C(C(N)=O)C(=O)OC2(C)C(c2ccccc2)C1` (configuration not stated), the GI50 in the assay with ACHN, with BT-549, in the assay on HCT-116, in the assay with IGROV-1, in the assay with LOX IMVI and with MCF7 was > 100 µM (inactive) throughout. For the same compound, the GI50 in the assay with MDA-MB-435, with Malme-3M, in the assay with OVCAR-5, with OVCAR-8, in the assay on SK-MEL-28 and with SK-MEL-2 was > 100 µM (inactive) throughout. In addition, the GI50 in the assay with SN12C was > 100 µM (inactive); with SNB-75 it was 3.03 µM (inactive); in the assay on UO-31 it was > 100 µM (inactive).

Consider `CC1(C)C(=O)N=C(N)N1C(=O)OCc1ccccc1`, for which the GI50 in the assay with ACHN, in the assay with BT-549, with CAKI-1, in the assay with CCRF-CEM, with HCC 2998 and with HCT-116 was > 100 µM (inactive) in each case. The GI50 with IGROV-1, with LOX IMVI, in the assay on MCF7, in the assay on MDA-MB-435, in the assay on Malme-3M and in the assay with NCI-H23 was > 100 µM (inactive) throughout. Also, the GI50 with OVCAR-5, with OVCAR-8, in the assay on SK-MEL-28, with SK-MEL-2, in the assay on SN12C and in the assay on SNB-75 was > 100 µM (inactive) throughout. Further, the GI50 with UO-31 was 67.6 µM (inactive).

`CCOC(=O)C1=COC(C)(CCc2ccccc2)CC1=O` (configuration not stated): the GI50 is > 100 µM (inactive) with ACHN; 71.4 µM (inactive) in the assay on BT-549; > 100 µM (inactive) with CAKI-1; 67.9 µM (inactive) in the assay on HCT-116; 44 µM (inactive) with MCF7; 51.8 µM (inactive) with MDA-MB-435. For the same compound, the GI50 in the assay on NCI-H23 is 95.5 µM (inactive); with OVCAR-5, > 100 µM (inactive); with OVCAR-8, 52.4 µM (inactive); in the assay on RXF 393, 59.4 µM (inactive); in the assay with SK-MEL-28, > 100 µM (inactive); in the assay on SK-MEL-2, > 100 µM (inactive). Also, the GI50 with SN12C is > 100 µM (inactive); in the assay on SNB-75, > 100 µM (inactive); in the assay on UO-31, 91.2 µM (inactive).

On to `COc1cc2c3c(c4cc(OC)c(OC)cc4c2cc1OC)[C@H](O)[C@@H]1CCCN1C3`, for which the GI50 with ACHN was < 0.0157 µM (active); in the assay on BT-549, 0.144 µM (active); with CAKI-1 it was < 0.0324 µM (active); in the assay on CCRF-CEM it was < 0.0272 µM (active); in the assay on HCC 2998, < 0.0243 µM (active); in the assay on HCT-116, < 0.0215 µM (active). Also, the GI50 with IGROV-1 is < 0.0275 µM (active); in the assay on LOX IMVI it was < 0.0265 µM (active); in the assay with MCF7, < 0.0173 µM (active); in the assay with MDA-MB-435 it was < 0.0265 µM (active); in the assay with Malme-3M, < 0.0384 µM (active); with NCI-H23, < 0.0344 µM (active). Further, the GI50 is < 0.0316 µM (active) with OVCAR-5; < 0.0308 µM (active) in the assay on OVCAR-8; < 0.0284 µM (active) with SK-MEL-28; < 0.0167 µM (active) in the assay on SK-MEL-2; < 0.0303 µM (active) in the assay on SN12C; < 0.0312 µM (active) in the assay with SNB-75. Also, in the assay on UO-31, the GI50 is < 0.0337 µM (active).

`O=C1CC(c2ccc([N+](=O)[O-])cc2)C2(C(=O)NC(=S)NC2=O)C(c2ccc([N+](=O)[O-])cc2)C1` (configuration not stated): the GI50 is 20.1 µM (inactive) in the assay on ACHN; 17 µM (inactive) in the assay with BT-549; 27.7 µM (inactive) in the assay with CCRF-CEM; 24.4 µM (inactive) in the assay on HCC 2998; 16.7 µM (inactive) in the assay with HCT-116; 16.3 µM (inactive) in the assay with IGROV-1. Moreover, the GI50 in the assay on LOX IMVI was 19 µM (inactive); in the assay with MCF7, 21.4 µM (inactive); in the assay on MDA-MB-435 it was 15 µM (inactive); with Malme-3M, 12.2 µM (inactive); with NCI-H23 it was 22.1 µM (inactive); with OVCAR-5, 35.5 µM (inactive). Further, the GI50 is 19.3 µM (inactive) with OVCAR-8; 40.7 µM (inactive) with SK-MEL-28; 21.5 µM (inactive) with SN12C; > 100 µM (inactive) in the assay with SNB-75; 25.4 µM (inactive) in the assay with UO-31.

`CC1(C)S[C@@H]2[C@H](NC(=O)/C=C/c3ccccc3)C(=O)N2[C@H]1C(=O)O`: the GI50 with ACHN, in the assay on BT-549, in the assay on CAKI-1, in the assay with CCRF-CEM, with HCC 2998 and in the assay with HCT-116 was > 100 µM (inactive) in each case. Moreover, the GI50 in the assay with IGROV-1, in the assay with LOX IMVI, with MCF7, in the assay on MDA-MB-435, in the assay on Malme-3M and with NCI-H23 was > 100 µM (inactive) in each case. In addition, the GI50 is > 100 µM (inactive) with OVCAR-5; > 100 µM (inactive) in the assay with OVCAR-8; 69.5 µM (inactive) in the assay with SK-MEL-28; > 100 µM (inactive) in the assay on SK-MEL-2; > 100 µM (inactive) in the assay on SN12C; 47.9 µM (inactive) in the assay with SNB-75. The GI50 in the assay on UO-31 is > 100 µM (inactive).

Turning to `CNC(=O)c1nn[nH]c1O`, the GI50 with ACHN, with CAKI-1, with CCRF-CEM, in the assay on HCC 2998, in the assay with HCT-116 and with IGROV-1 was > 100 µM (inactive) each time. Also, the GI50 with LOX IMVI, with MCF7, in the assay on MDA-MB-435, in the assay on Malme-3M, with NCI-H23 and in the assay with OVCAR-5 was > 100 µM (inactive) each time. The GI50 was > 100 µM (inactive) in the assay with OVCAR-8; > 100 µM (inactive) in the assay with RXF 393; > 100 µM (inactive) in the assay with SK-MEL-28; > 100 µM (inactive) in the assay on SK-MEL-2; > 100 µM (inactive) in the assay with SN12C; 74.1 µM (inactive) in the assay on SNB-75. In addition, in the assay with UO-31, the GI50 is > 100 µM (inactive).

Source of the values: ChEMBL document CHEMBL1201862, “PubChem BioAssay data set” (2004).
